Assays:
[1] = target: Calcium/calmodulin-dependent protein kinase type II subunit delta (Homo sapiens, UniProt Q13557); assay: Inhibition of recombinant full length human His-tagged CAMK2D expressed in baculovirus expression system using serine/threonine-04 peptide as substrate incubated for 60 mins in presence of ATP by Z'-LYTE assay
[2] = Unbound clearance in dog at 0.5 mg/kg, iv or 1 mg/kg, po; type: ADME, organism-based, Canis lupus familiaris; settings: in vivo
[3] = target: Mast/stem cell growth factor receptor Kit (Homo sapiens, UniProt P10721, T670I); assay: Inhibition of recombinant human His-tagged KIT (544 to 976 residues) harboring T670I mutant expressed in baculovirus expression system using tyrosine-6 peptide as substrate incubated for 60 mins in presence of ATP by Z'-LYTE assay
Ephrin type-A receptor 8 = Ephrin type-A receptor 8 (Homo sapiens, UniProt P29322); assay: Inhibition of recombinant human GST-tagged EPHA8 catalytic domain (565 to 1005 residues) expressed in baculovirus expression system using tyrosine-2 peptide as substrate incubated for 60 mins in presence of ATP by Z'-LYTE assay
Ephrin type-A receptor 8, sequence (P29322 whole entry, the tested form may be a part): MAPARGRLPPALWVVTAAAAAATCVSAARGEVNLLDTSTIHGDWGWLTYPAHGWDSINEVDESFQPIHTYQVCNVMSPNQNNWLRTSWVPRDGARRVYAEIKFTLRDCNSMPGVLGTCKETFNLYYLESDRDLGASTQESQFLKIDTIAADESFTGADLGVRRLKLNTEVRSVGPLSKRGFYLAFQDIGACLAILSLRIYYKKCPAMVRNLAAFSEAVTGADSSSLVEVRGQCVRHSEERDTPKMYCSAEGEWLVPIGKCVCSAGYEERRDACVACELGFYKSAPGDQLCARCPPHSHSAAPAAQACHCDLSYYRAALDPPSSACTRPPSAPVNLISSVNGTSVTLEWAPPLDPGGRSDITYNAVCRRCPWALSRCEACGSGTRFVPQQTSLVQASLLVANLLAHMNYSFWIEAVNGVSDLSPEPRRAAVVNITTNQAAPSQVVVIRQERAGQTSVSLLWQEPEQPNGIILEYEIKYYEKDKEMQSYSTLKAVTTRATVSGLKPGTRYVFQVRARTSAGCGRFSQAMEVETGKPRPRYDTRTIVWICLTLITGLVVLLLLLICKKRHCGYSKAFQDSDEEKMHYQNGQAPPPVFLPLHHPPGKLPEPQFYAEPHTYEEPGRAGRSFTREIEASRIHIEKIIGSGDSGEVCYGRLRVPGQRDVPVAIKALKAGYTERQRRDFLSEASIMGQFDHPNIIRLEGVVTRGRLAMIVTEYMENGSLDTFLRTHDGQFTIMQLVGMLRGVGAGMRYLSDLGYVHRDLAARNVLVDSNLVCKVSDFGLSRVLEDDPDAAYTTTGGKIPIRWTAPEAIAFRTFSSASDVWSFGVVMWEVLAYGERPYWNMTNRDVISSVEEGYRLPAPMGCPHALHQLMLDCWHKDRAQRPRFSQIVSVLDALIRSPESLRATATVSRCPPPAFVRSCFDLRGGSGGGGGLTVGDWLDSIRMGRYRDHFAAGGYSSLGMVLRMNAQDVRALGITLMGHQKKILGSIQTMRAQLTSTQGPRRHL

[4] = target: Serine/threonine-protein kinase PAK 2 (Homo sapiens, UniProt Q13177); assay: Inhibition of recombinant full length human GST-tagged PAK2 expressed in baculovirus expression system using serine/threonine-20 peptide as substrate incubated for 60 mins in presence of ATP by Z'-LYTE assay
[5] = target: Macrophage colony-stimulating factor 1 receptor (Homo sapiens, UniProt P07333); assay: Inhibition of recombinant human His-tagged CSF1R catalytic domain (538 to 910 residues) expressed in baculovirus expression system using tyrosine-1 peptide as substrate incubated for 60 mins in presence of ATP by Z'-LYTE assay
Macrophage colony-stimulating factor 1 receptor, sequence (P07333 whole entry, the tested form may be a part): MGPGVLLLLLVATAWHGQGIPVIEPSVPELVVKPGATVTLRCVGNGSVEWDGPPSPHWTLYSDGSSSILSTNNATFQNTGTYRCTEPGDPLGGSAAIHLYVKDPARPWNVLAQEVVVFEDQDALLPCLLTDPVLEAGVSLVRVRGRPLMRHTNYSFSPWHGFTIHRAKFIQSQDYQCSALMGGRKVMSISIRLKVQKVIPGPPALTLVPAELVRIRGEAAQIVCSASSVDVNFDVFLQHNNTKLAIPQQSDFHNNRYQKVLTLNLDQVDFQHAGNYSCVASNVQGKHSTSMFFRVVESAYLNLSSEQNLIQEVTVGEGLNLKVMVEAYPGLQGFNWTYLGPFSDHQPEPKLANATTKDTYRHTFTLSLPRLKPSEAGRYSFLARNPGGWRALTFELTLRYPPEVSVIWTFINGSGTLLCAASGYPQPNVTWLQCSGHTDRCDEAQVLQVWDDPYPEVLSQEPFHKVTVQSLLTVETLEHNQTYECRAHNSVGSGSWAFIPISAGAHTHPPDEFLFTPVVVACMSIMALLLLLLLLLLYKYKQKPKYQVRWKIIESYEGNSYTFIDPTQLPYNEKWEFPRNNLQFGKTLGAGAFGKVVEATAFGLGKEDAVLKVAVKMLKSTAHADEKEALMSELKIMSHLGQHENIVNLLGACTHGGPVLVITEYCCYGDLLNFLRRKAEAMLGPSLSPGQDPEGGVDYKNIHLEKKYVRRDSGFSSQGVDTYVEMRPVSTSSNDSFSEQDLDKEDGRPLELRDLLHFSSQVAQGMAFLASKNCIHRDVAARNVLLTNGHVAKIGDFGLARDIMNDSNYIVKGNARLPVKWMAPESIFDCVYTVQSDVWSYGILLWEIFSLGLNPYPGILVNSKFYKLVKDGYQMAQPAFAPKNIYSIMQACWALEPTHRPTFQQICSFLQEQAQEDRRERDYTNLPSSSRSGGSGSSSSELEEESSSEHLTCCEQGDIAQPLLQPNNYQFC

Ephrin type-A receptor 1 = Ephrin type-A receptor 1 (Homo sapiens, UniProt P21709); assay: Inhibition of recombinant human GST-tagged EPHA1 cytoplasmic domain (568 to 976 residues) expressed in baculovirus expression system using Tyr 02 as substrate after 1 hr in presence of ATP by Z'LYTE assay
Ephrin type-A receptor 1, sequence (P21709 whole entry, the tested form may be a part): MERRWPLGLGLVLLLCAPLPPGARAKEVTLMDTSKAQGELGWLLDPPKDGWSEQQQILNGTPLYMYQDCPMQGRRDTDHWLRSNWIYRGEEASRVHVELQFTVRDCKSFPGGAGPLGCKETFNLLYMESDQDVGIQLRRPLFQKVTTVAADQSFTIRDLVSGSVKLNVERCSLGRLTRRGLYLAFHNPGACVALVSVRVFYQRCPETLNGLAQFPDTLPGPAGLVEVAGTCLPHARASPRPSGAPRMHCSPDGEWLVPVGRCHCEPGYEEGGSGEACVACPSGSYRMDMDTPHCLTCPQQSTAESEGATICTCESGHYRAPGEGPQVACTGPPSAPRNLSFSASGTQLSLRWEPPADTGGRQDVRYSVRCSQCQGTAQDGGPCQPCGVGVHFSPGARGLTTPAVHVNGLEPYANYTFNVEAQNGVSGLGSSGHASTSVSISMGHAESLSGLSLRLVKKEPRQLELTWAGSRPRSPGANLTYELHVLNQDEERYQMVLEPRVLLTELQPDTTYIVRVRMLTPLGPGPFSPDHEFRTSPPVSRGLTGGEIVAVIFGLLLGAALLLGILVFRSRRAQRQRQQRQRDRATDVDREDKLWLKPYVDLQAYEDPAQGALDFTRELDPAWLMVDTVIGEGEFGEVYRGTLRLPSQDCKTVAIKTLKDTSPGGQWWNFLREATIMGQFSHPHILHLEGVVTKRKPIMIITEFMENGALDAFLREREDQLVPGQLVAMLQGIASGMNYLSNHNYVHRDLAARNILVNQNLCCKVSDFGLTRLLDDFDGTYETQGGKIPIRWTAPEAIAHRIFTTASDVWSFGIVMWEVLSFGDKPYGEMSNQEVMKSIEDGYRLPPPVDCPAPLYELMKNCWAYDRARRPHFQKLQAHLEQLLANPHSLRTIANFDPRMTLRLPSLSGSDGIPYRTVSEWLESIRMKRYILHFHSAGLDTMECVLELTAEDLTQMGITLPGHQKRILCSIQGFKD

Ephrin type-A receptor 3 = Ephrin type-A receptor 3 (Homo sapiens, UniProt P29320); assay: Inhibition of tracer 236 binding to recombinant human His-tagged EPHA3 (569 to 976 residues) expressed in baculovirus expression system measured after 60 mins in presence of ATP by Lanthascreen assay
[6] = target: Inhibitor of nuclear factor kappa-B kinase subunit epsilon (Homo sapiens, UniProt Q14164); assay: Inhibition of recombinant human full-length GST-tagged IKBKE expressed in baculovirus expression system using Ser/Thr 11 peptide as substrate measured after 1 hr in presence of ATP by Z'-lyte assay
Inhibitor of nuclear factor kappa-B kinase subunit epsilon, sequence (Q14164 whole entry): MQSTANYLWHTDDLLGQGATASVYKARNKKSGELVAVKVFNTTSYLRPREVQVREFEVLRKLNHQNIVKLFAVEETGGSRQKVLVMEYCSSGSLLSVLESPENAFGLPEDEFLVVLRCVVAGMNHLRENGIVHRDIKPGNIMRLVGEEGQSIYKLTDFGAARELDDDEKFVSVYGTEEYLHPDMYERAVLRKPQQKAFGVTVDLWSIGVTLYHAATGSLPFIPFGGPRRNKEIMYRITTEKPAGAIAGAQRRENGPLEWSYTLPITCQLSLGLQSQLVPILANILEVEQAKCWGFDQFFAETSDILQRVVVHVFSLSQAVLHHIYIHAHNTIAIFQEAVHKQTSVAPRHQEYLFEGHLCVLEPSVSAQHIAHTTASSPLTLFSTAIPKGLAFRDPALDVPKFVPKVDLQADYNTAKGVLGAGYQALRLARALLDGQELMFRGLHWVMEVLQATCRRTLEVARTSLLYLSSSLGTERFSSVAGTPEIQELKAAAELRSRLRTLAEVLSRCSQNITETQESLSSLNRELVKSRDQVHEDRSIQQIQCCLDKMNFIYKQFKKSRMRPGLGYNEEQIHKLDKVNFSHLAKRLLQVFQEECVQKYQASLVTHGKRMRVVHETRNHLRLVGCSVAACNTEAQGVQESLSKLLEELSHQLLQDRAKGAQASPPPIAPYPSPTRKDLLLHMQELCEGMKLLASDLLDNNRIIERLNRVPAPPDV

[7] = target: Dual specificity tyrosine-phosphorylation-regulated kinase 1B (Homo sapiens, UniProt Q9Y463); assay: Inhibition of recombinant full length human GST-tagged DYRK1B expressed in baculovirus expression system using serine/threonine-18 peptide as substrate incubated for 60 mins in presence of ATP by Z'-LYTE assay
[8] = target: Glucocorticoid receptor (Homo sapiens) (UniProt P04150); assay: Displacement of [3H]dexamethasone from full length human recombinant glucocorticoid receptor expressed in insect cells at 10 uM incubated for 24 hrs by radiometric scintillation analysis relative to control
Glucocorticoid receptor (Homo sapiens), sequence (P04150 whole entry, canonical isoform): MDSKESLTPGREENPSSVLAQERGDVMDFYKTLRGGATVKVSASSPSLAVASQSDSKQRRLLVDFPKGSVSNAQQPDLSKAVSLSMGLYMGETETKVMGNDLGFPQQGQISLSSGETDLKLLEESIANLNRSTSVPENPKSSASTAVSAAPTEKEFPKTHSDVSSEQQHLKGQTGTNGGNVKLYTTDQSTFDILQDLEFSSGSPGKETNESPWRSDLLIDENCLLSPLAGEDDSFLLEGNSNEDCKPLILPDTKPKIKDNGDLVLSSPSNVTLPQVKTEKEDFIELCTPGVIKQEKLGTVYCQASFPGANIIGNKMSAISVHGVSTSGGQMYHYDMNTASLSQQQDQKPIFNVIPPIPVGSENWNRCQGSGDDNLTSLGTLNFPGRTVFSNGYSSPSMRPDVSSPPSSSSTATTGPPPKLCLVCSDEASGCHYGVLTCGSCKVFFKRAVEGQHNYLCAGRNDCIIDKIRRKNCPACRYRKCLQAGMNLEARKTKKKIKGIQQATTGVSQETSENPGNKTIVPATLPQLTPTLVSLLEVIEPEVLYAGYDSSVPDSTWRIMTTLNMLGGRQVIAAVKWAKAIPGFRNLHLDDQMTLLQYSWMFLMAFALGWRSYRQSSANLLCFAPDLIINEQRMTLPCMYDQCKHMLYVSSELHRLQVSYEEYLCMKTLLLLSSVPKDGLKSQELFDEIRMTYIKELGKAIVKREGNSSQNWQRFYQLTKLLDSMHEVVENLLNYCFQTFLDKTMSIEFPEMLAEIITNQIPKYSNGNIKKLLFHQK

[9] = target: Casein kinase I isoform alpha (Homo sapiens, UniProt P48729); assay: Inhibition of recombinant full length human GST-tagged CSNK1A1 expressed in baculovirus expression system using fluorophore-labeled serine/threonine-11 peptide as substrate incubated for 60 mins in presence of ATP by Z'-LYTE assay
[10] = target: Prostaglandin E2 receptor EP1 subtype (Homo sapiens) (UniProt P34995); assay: Displacement of [3H]prostaglandin E2 from full length human recombinant EP1 receptor expressed in HEK293 cells at 10 uM measured after 60 mins by radiometric scintillation analysis relative to control; type: cell-based
[11] = target: Gastrin/cholecystokinin type B receptor (Homo sapiens) (UniProt P32239); assay: Displacement of [125I]CCK-8 from recombinant full length human recombinant CCK2 expressed in Chem-1 cells at 10 uM measured after 3 hrs by radiometric scintillation analysis relative to control; type: cell-based
[12] = target: Muscarinic acetylcholine receptor M1 (Homo sapiens) (UniProt P11229); assay: Displacement of [3H]N-Methylscopolamine from full length human recombinant Muscarinic M1 receptor expressed in CHOK1 cells at 10 uM measured after 120 mins by radiometric scintillation analysis relative to control; type: cell-based; settings: CHO-K1
[13] = target: Tyrosine-protein kinase TXK (Homo sapiens, UniProt P42681); assay: Inhibition of recombinant human GST-tagged TXK catalytic domain (260 to 527 residues) expressed in baculovirus expression system using tyrosine-6 peptide as substrate incubated for 60 mins in presence of ATP by Z'-LYTE assay
[14] = target: Tyrosine-protein kinase JAK3 (Homo sapiens, UniProt P52333); assay: Inhibition of recombinant human GST-tagged JAK3 catalytic domain (781 to 1124 residues) expressed in baculovirus expression system using tyrosine-6 peptide as substrate incubated for 60 mins in presence of ATP by Z'-LYTE assay
[15] = target: Calcium/calmodulin-dependent protein kinase type IV (Homo sapiens, UniProt Q16566); assay: Inhibition of recombinant full length human full length GST-tagged CAMK4 expressed in Escherichia coli expression system using serine/threonine-13 peptide as substrate incubated for 60 mins in presence of ATP by Z'-LYTE assay
[16] = target: Tyrosine-protein kinase JAK1 (Homo sapiens, UniProt P23458); assay: Inhibition of human recombinant GST tagged JAK1 expressed in baculovirus expression system using Tyr6 peptide as substrate measured after 1 hr in presence of ATP by Z'-LYTE assay
Rattus norvegicus = organism: Rattus norvegicus; assay: Displacement of [3H]hemicholinium-3 from choline transporter in Wistar rat striatal membranes at 10 uM after 20 mins by radiometric scintillation analysis relative to control; type: cell membranes; settings: Striatum, Membrane
[17] = target: Death-associated protein kinase 3 (Homo sapiens, UniProt O43293); assay: Inhibition of recombinant human full-length GST-tagged DAPK3 expressed in baculovirus expression system using FRET-labeled Ser/Thr 13 peptide as substrate measured after 1 hr in presence of ATP by Z'-lyte assay
[18] = target: Histamine H2 receptor (Homo sapiens) (UniProt P25021); assay: Displacement of [125I]aminopotentidine from full length human recombinant histamine H2 receptor expressed in CHO-K1 cells at 10 uM measured after 120 mins by radiometric scintillation analysis relative to control; type: cell-based
Histamine H2 receptor (Homo sapiens), sequence (P25021 whole entry, the tested form may be a part): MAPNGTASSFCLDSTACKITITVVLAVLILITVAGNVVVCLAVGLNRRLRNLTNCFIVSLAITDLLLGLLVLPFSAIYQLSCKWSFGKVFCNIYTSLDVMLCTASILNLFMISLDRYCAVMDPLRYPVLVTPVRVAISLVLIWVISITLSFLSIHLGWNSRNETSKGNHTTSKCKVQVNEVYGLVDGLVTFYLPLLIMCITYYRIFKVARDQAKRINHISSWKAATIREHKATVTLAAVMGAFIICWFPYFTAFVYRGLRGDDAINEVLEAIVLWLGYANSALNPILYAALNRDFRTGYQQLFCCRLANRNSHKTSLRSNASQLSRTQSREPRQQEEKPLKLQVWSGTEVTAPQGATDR

[19] = target: High affinity nerve growth factor receptor (Homo sapiens, UniProt P04629); assay: Inhibition of recombinant human His-tagged NTRK1 cytoplasmic domain expressed in baculovirus expression system using FRET-labeled tyr 07 peptide as substrate measured after 1 hr in presence of ATP by Z'-lyte assay
[20] = target: Calcium/calmodulin-dependent protein kinase type II subunit alpha (Homo sapiens, UniProt Q9UQM7); assay: Inhibition of recombinant full length human His-tagged CAMK2alpha expressed in baculovirus expression system using serine/threonine-4 peptide as substrate incubated for 60 mins in presence of ATP by Z'-LYTE assay
[21] = target: Protein kinase C eta type (Homo sapiens, UniProt P24723); assay: Inhibition of recombinant full length human His-tagged PRKCH expressed in baculovirus expression system using serine/threonine-7 peptide as substrate incubated for 60 mins in presence of ATP by Z'-LYTE assay

C[C@@H]1C[C@H]1C(=O)N1CCN(c2cnc(C#N)c(-c3cnn(C)c3)n2)C[C@H]1C
IC50 [1]: > 100 µM
CL free [2]: 37 mL/min/kg
IC50 [3]: > 100 µM
IC50 (Ephrin type-A receptor 8): > 100 µM
IC50 [4]: > 100 µM
IC50 [5]: > 100 µM
IC50 (Ephrin type-A receptor 1): 34 µM
IC50 (Ephrin type-A receptor 3): > 100 µM
IC50 [6]: > 100 µM
IC50 [7]: > 100 µM
inhibition [8]: 7%
IC50 [9]: > 100 µM
inhibition [10]: 11%
inhibition [11]: -4%
inhibition [12]: -3%
IC50 [13]: > 100 µM
IC50 [14]: 13.7 µM
IC50 [15]: > 100 µM
IC50 [16]: > 100 µM
inhibition (Rattus norvegicus): -8%
IC50 [17]: > 100 µM
inhibition [18]: 6%
IC50 [19]: > 100 µM
IC50 [20]: > 100 µM
IC50 [21]: > 100 µM

Source: ChEMBL document CHEMBL4602617, “Discovery and optimization of heteroaryl piperazines as potent and selective PI3Kδ inhibitors” (Bioorg Med Chem Lett, 2020)
